Legend:
[1] = test system: CHO cells for expression of recombinant human FSH; experiment: Sialic acid content (HPLC peak area) of recombinant human FSH from cells cultured in supplemented medium; assay type: cell-based, Chinese hamster; conditions: for relative value of sialic acid peak area of recombinant human FSH (basic medium = 100%): basic medium added with 8 mM N-acetyl-D-mannosamine and/or 3 mM uridine, 5 days at 37° C., FIG. 9
Protocol: (§1) The above master cells stored in liquid nitrogen were quickly thawed in 37° C. thermostatic bath, and suspended in a basic medium, the CD Opti CHO™ medium (Life Technologies Inc.) supplemented with 2 mM of GlutaMAX (Life Technologies Inc.) and 1×HT Supplement (Life Technologies Inc.). Then, the cells were precipitated by centrifugation and corrected. The corrected cells were suspended with the basic medium to obtain cell suspension, and the number of the living cells was counted. The cell suspension was diluted to the living cell density of 2×10^5 cells/mL with the basic medium.
The cell suspension was dispensed into culture vessels by 120 mL each to generate four groups and incubated for five days at 37° C. under 5% CO2. This incubation was conducted by using Bio Jr. 8 (100 mL×8 vessels culture device, AbleBiott Inc.), and pH of the medium was kept at 6.9 and the dissolved oxygen level (DO) was kept at 40% during the incubation. […]
50 μL of the concentrated solution of the purified recombinant human FSH of each of the groups was alkali-treated with 0.3M sodium hydroxide at 37° C. for 30 minutes, subsequently was acid-treated with 0.05M hydrochloric acid at 80° C. for 60 minutes to make glycans composing recombinant human FSH hydrolyzed to monosaccharides. Then, the solution were added with fluorescence reagent (a solution containing 9.6 mM of 1,2-diamino-4,5-methylene-dioxybenzene dihydrochloride, 24 mM of sodium hydrosulfite, and 1M of 2-mercaptoethanol), and heated at 50° C. for 150 minutes to fluorescently label the monosaccharides obtained by the hydrolysis. […] As a standard, sialic acid was concurrently treated with the same manner, and the standard of fluorescence-labeled sialic acid was obtained. The standard thus obtained was analyzed by HPLC using COSMOSIL 5C18-PAQ as reverse phase column, and the elution time of sialic acid, the time when the peak corresponding to sialic acid appeared, was measured. And each of the sample solutions was analyzed by HPLC and the area of peak corresponding to sialic acid was calculated. […]

[2] = test system: CHO cells for expression of recombinant human erythropoietin; experiment: Capillary electrophoresis isoform analysis of recombinant human erythropoietin from cells cultured in supplemented medium; assay type: cell-based, Chinese hamster; conditions: basic medium added with 8 mM N-acetyl-D-mannosamine and/or 3 mM uridine, 5 days at 37° C., FIG. 3; for ratio of type I isoform to sum of all detected isoforms of recombinant human erythropoietin: type I = lowest isoelectric point
Protocol: as §1, with “obtain the” for “obtain”
The cell suspension was dispensed into culture vessels by 120 mL each to generate four groups and incubated for five days at 37° C. under 5% CO2. This incubation was conducted by using Bio Jr.8 (100 mL×8 vessels culture device, AbleBiott Inc.), and pH of the medium was kept at 6.9 and the dissolved oxygen level (DO) was kept at 40% during the incubation. At this time, uridine and N-acetyl-D-mannosamine were added at the concentration as shown in Table 1 to each of the groups (group 1 to group 4). The incubation was conducted four times for each of the groups.
On the fifth day of the incubation above, 10 mL of each of the cultures was corrected to centrifuging tubes and centrifuged at 3,000 rpm for 10 minutes. Then, the culture supernatants were corrected and diluted 1.5 times with purified water. Then, 7.5 mL of each of these diluted culture supernatants was loaded on Capto™ adhere column, a multi-modal anion exchange resin (column volume: 1 mL, GE Healthcare Bioscience Inc.) pre-equilibrated with 20 mM Tris buffer (pH 7.5). After washing the column with 5 column volumes of 20 mM Tris buffer (pH 7.5), recombinant human erythropoietin adsorbed by the resin was eluted with 20 mM Tris buffer (pH 7.5) containing 200 mM of NaCl to obtain eluted fractions. And the eluted fractions were concentrated by Amicon Ultra-4 Centrifugal Filter Units (molecular weight cut off: 3 kDa, Millipore Inc.) to 100 μL of volume.
The concentrated solution of each of the groups was subjected capillary electrophoresis by using Bare Fused-Silica Capillary (50 μm ID, 375 μm OD, 50 cm length, Beckmann Coulter Inc.) attached to capillary electrophoresis system (P/ACE™ system MDQ, Beckmann Coulter Inc.). In doing this, 10 mM Tris buffer (pH 4.5) containing 10 mM of sodium chloride, 500 mM of sodium acetate, 7 M of urea, and 2.5 mM of putrescine was used as an electrophoresis buffer, and the electrophoresis was performed at constant current of 24 μA for 50 minutes. Further the wave length at 214 nm was monitored by an UV detector to detect the recombinant human erythropoietin subjected to the electrophoresis.
The isoform showing the lowest isoelectric point among the isoforms showing different isoelectric points when detected by the capillary electrophoresis above was named as type I, and further the isoforms were named as type II and type III in ascending order of isoelectric point. The ratios of type I, type II, and type III to sum of all of detected isoforms were calculated, respectively. And the ratios were compared between the groups. The ratios of type I, type II, and type III in the recombinant human erythropoietin of the group 1 obtained by culturing the cells in the basic medium were about 0.7%, about 5%, and about 15%, respectively (FIG. 3).

SMILES | increase of average number of sialic acid molecules per molecule of recombinant human FSH versus basic medium ([1]; basic medium added with 3 mM uridine, or with 8 mM N-acetyl-D-mannosamine and 3 mM uridine) | relative value of sialic acid peak area of recombinant human FSH (basic medium = 100%) [1] | ratio of type II isoform to sum of all detected isoforms of recombinant human erythropoietin [2] | ratio of type III isoform to sum of all detected isoforms of recombinant human erythropoietin [2] | ratio of type I isoform to sum of all detected isoforms of recombinant human erythropoietin [2]
O=c1ccn([C@@H]2O[C@H](CO)[C@@H](O)[C@H]2O)c(=O)[nH]1 [uridine] | about 10% | about 112% | about 3.5% | about 13% | about 0.3%
CC(=O)N[C@@H]1C(O)O[C@H](CO)[C@@H](O)[C@@H]1O (stereo partly drawn) [N-acetyl-D-mannosamine] | – | about 100% | about 7% | about 20.7% | about 1.2%
